“Also recorded” adds a separate entry of the source. Marks after values point to notes of the source that are not given here.
What was measured:
[1] = system: Osteoblast-like rat osteosarcoma cells (ROS17/2.8); experiment: Determination of osteocalcin synthesis (radio-immunoassay of OC released into the medium); type: cell-based; details: for order of potency relative to 1,25(OH)2D3 (induction of OC synthesis): 1,25(OH)2D3 = 1.0; for effectiveness on OC synthesis compared with the steroid hormone 1,25(OH)2D3 / stimulation of OC synthesis: 72 hours incubation
Method: Cells were grown by 72 hours in the absence (control) or presence of the indicated concentrations of 1α, 25-dihydroxy-vitamin D3[1,25(OH)2D3], EHDP, APD, OPD or NH2-OPD. Then osteocalcin (OC) released into the medium was quantitated as described in Example 4. Data are the average±SD of 3 independent experiments performed by triplicate.
(§1) Osteoblast-like rat osteosarcoma cells (ROS17/2.8) were cultured as monolayers at 37° C. in Dulbecco's modified Eagle's medium (DME) containing 10% fetal bovine serum under humidified air (5.5% CO2). After 48 hours, medium was changed to DME containing 1% fetal bovine serum. Unless otherwise stated, cells were allowed to grow until confluence (4-5 days after plating).
Osteoblasts grown by 48 hours in multiwells were changed to Dulbecco's modified Eagle's medium containing 1% fetal bovine serum plus the indicated concentration of BP, 10^−8 M 1,25(OH)2D3 (positive control), or vehicle alone, and then allowed to grow for an additional period of 72 hours. The medium from each well was collected and stored frozen at −80° C. until use for osteocalcin measurements. Osteocalcin (OC) was quantitatively measured by radio-immunoassay using a commercially avalaible kit (Osteocalcin DSL-6900, Diagnostic Systems Laboratories Inc., Webster, Tex., USA) according to manufacturer's instructions. Osteocalcin values were corrected for total cellular protein content.

[2] = system: Osteoblast-like rat osteosarcoma cells (ROS17/2.8); experiment: Intracellular calcium measurements (Fura-2 fluorimetry), with or without VDCC blockers, PLC inhibitors or thapsigargin; type: cell-based; set-up: Δ[Ca^2+]i: unit not given here; details: for Ca^2+ response after depletion of Ca^2+ stores with thapsigargin: 1 μM thapsigargin, bisphosphonate 10 nM; for % Inhibition (decrease in Δ[Ca^2+]i) / [Ca^2+]i / Δ[Ca^2+]i: 10^−8 M; for rapid (1 min) increase in cytosolic Ca^2+ after pretreatment with PLC inhibitors: U73122 (2 μM) or neomycin (0.5 mM); for rapid (1 min) increase in cytosolic Ca^2+ after pretreatment with U73343: U73343, analogue of U73122 devoid of effect on PLC, not shown; for reduction of the induced [Ca^2+]i increase by VDCC blockers: pretreatment with nifedipine (2 μM) or verapamil (5 μM)
Method: as §1
Intracellular Ca^2+ changes were monitored by using the Ca^2+-sensitive fluorescent dye Fura-2 as previously described (Vasquez et al., 1998, J. Biol. Chem. 273, 33954-33960). Cell dye loading was achieved by incubating the cells in buffer A containing (in mM): 138 NaCl, 5 KCl, 1 MgCl2, 5 glucose, 10 HEPES (pH 7.4), 1.5 CaCl2, plus 0.1% bovine serumalbumin (BSA), 2 μM of the pentaacetoxymethylester derivative (membrane permeable) Fura-2/AM and 0.012% pluronic F-127, in the dark during 40 min at room temperature (20-25° C.) in order to minimize dye compartmentalization. Unloaded dye was washed out and cells were stored in buffer B (buffer A without BSA, Fura-2/AM and pluronic F-127) in the dark (room temperature) by at least 30 min prior to use, to allow for complete intracellular dye deesterification. For fluorescence measurements the coverslips containing dye-loaded cells were mounted into quartz cuvettes and introduced into the thermostatized (37° C.) sample compartment of a SLM Aminco 8100 spectrofluorimeter. Fura-2 intracellular fluorescence intensity was monitored at an emission wavelength of 510 nm (8 nm bandpass) by alternating with an electronically controlled chopper (300 Hz) the excitation wavelength between 340 and 390 nm employing a dual excitation monochromator at 4 nm bandpass. Signals from short and long wavelength were ratioed (R=340/390) thus making the measurement independent of variations in cellular dye content, dye leakage or photobleaching. Calibration of Fura-2 signal to calculate [Ca^2+]i values was performed for each coverslip as follows: maximal (Rmax) and minimal (Rmin) intracellular dye fluorescence signals were determined by adding 5 μM ionomycin plus 3 mM Ca^2+ and 10 mM EGTA (pH 7.0) plus 10 mM Tris-base (pH 9.0), respectively.
[Ca^2+]i=Kd(R−Rmin)/(Rmax−R)×β
where R is the ratio of Fura-2 fluorescence at the selected wavelengths, Rmax and Rmin represent ratios from Ca^2+ saturated and Ca^2+ free intracellular dye, respectively, and β is the ratio between the specific fluorescence of the Ca^2+ free and Ca^2+ bound forms of the dye at the longer wavelength (Sf2/Sb2).
Fura-2 loaded osteoblasts were treated with vehicle (buffered saline solution, Basal), OPD (10−8 M) or NH2-OPD (10^−8 M) and intracellular Ca^2+ concentration ([Ca^2+]i) was measured as described. Given are [Ca^2+]i values corresponding to the plateau phase (5 min after BP exposure; see FIG. 3) of the BP-induced Ca^2+ response. When used, both nifedipine (2 μM) and verapamil (5 μM) were added 3 min before stimulation. Data are the average of 5 independent [Ca^2−]i recordings±sd. p values (*p<0.001; **p<0.01) are given for significant differences respect to basal. Percent (%) inhibition refers to the decrease in Δ[Ca^2+]i.
Fura-2 loaded cells were treated with vehicle (buffered saline solution, Basal), OPD (10^−8 M) or NH2-OPD (10^−8 M) and intracellular Ca^2+ concentration ([Ca^2+]i) was measured as described. Unless otherwise indicated, [Ca^2+]i stimulation was evaluated at the plateau phase of the BP-induced response (see FIG. 3). When used, the PLC inhibitors U73122 (2 μM) or neomycin (0.5 mM, data in parentheses) were added into the measurement cuvette 3 min before stimulation. In the PLC-inhibition assay [Ca^2+]i values measured at 1- and 5-min. after stimulation are given. Results are expressed as percent of control (100%) to allow comparison among different assay conditions, and are the average of 3 independent experiments±sd. *p<0.001; **p<0.01. Percent (%) inhibition refers to the decrease in Δ[Ca^2+]i.

bone resorption = details: Van Beek E. et al., 1996, J. Bone Miner. Res. 11, 1492-1497; cited from earlier work
[3] = U73122 (2 μM), 1 min after stimulation
[4] = U73122 (2 μM), 5 min after stimulation
[5] = neomycin (0.5 mM, data in parentheses), 1 min
[6] = neomycin (0.5 mM, data in parentheses), 1 min after stimulation
[7] = neomycin (0.5 mM, data in parentheses), 5 min
[8] = neomycin (0.5 mM, data in parentheses), 5 min after stimulation
[9] = plateau phase (5 min), nifedipine (2 μM) pretreatment
[10] = plateau phase (5 min), nifedipine (2 μM) pretreatment 3 min before
[11] = plateau phase (5 min), no pretreatment, basal 135 ± 6
[12] = plateau phase (5 min), no pretreatment, difference to basal
[13] = plateau phase (5 min), verapamil (5 μM) pretreatment
[14] = plateau phase (5 min), verapamil (5 μM) pretreatment 3 min before
[15] = plateau phase, no PLC inhibitor
[16] = plateau phase, no PLC inhibitor, difference to control (100%)

SMILES	order of potency relative to 1,25(OH)2D3 (induction of OC synthesis) ([1]; 10^−8 M, 72 hours)	effectiveness on OC synthesis compared with the steroid hormone 1,25(OH)2D3 [1]	stimulation of OC synthesis [1]	maximal change in cytosolic Ca^2+ relative to 1,25(OH)2D3 ([2]; 10 nM)	time-to-peak of cytosolic Ca^2+ change ([2]; 10 nM) [s]	Ca^2+ response after depletion of Ca^2+ stores with thapsigargin [2]	% Inhibition (decrease in Δ[Ca^2+]i) ([2]; U73122 (2 μM), 1 min)	[Ca^2+]i [2, 3]	% Inhibition (decrease in Δ[Ca^2+]i) ([2]; U73122 (2 μM), 5 min)	[Ca^2+]i [2, 4]	% Inhibition (decrease in Δ[Ca^2+]i) [2, 5]	[Ca^2+]i [2, 6]	% Inhibition (decrease in Δ[Ca^2+]i) [2, 7]	[Ca^2+]i [2, 8]	% Inhibition (decrease in Δ[Ca^2+]i) [2, 9] [%]	Δ[Ca^2+]i [2, 9]	[Ca^2+]i [2, 10]	[Ca^2+]i [2, 11]	Δ[Ca^2+]i [2, 12]	% Inhibition (decrease in Δ[Ca^2+]i) [2, 13] [%]	also measured
CN(C)CCC(O)(P(=O)(O)O)P(=O)(O)O [OPD, olpadronate]	1.9	more effective than the steroid hormone	markedly stimulated OC synthesis in a dose-dependent fashion	equipotent to the steroid	60	completely blocked	100(100) %	105 ± 3% of control (100%)	100(100) %	100 ± 5% of control (100%)	100(100) %	98 ± 2% of control (100%)	100(100) %	100 ± 8% of control (100%)	70	21	156 ± 8** nM	205 ± 10* nM	70	85	Δ[Ca^2+]i [2, 13]: 11; [Ca^2+]i [2, 14]: 146 ± 5 nM; [Ca^2+]i [2, 15]: 164 ± 9* percent of control (100%); Δ[Ca^2+]i [2, 16]: 64; rapid (1 min) increase in cytosolic Ca^2+ after pretreatment with PLC inhibitors [2]: totally blocked; rapid (1 min) increase in cytosolic Ca^2+ after pretreatment with U73343 [2]: not by U73343; reduction of the induced [Ca^2+]i increase by VDCC blockers [2]: 70%
CN(C)CCC(N)(P(=O)(O)O)P(=O)(O)O [NH2-OPD, 1-amino-3-(N,N-dimethylamino)-propylidene-1,1-bisphosphonic acid]	0.85	lower than for the secosteroid	markedly stimulated OC synthesis in a dose-dependent fashion	less effective than the steroid	80	completely blocked	100%	101 ± 5% of control (100%)	100(100) %	100 ± 11% of control (100%)	99%	99 ± 1% of control (100%)	100(100) %	100 ± 5% of control (100%)	90	2	137 ± 6 nM	150 ± 3** nM	15	100	[Ca^2+]i [2, 14]: 133 ± 7 nM; [Ca^2+]i [2, 15]: 137 ± 3** percent of control (100%); Δ[Ca^2+]i [2, 16]: 37; rapid increase in [Ca^2+]i (time of onset) ([2]; Fura-2 loaded cells): 60 s; rapid (1 min) increase in cytosolic Ca^2+ after pretreatment with PLC inhibitors [2]: totally blocked; rapid (1 min) increase in cytosolic Ca^2+ after pretreatment with U73343 [2]: not by U73343; reduction of the induced [Ca^2+]i increase by VDCC blockers [2]: almost completely abolished; return of [Ca^2+]i to near basal levels after peak ([2]; transient Ca^2+ rise, down-turn phase after peak): 1 to 2 min; antiresorptive activity (bone resorption): complete loss of antiresorptive activity; also recorded: absolutely devoid of antiresorptive properties
C=C1/C(=C\C=C2/CCC[C@]3(C)[C@@H]([C@H](C)CCCC(C)(C)O)CC[C@@H]23)C[C@@H](O)C[C@@H]1O [1,25(OH)2D3, 1α, 25-dihydroxy-vitamin D3]	1.0				90																release of OC into the culture medium increased respect to control, untreated cells ([1]; 10^−8 M, 72 hours): 100%
CC(O)(P(=O)(O)O)P(=O)(O)O [EHDP, etidronate]	0.85			less effective than the steroid	120																rate of Ca^2+ elevation, initial phase (0-2 min) ([2]; 10 nM): slowest rate of Ca^2+ elevation
NCCC(O)(P(=O)(O)O)P(=O)(O)O [APD, pamidronate]	1.1	more effective than the steroid hormone		less effective than the steroid	80																
